These are literature values, as cited in US20250114486A1, “MARKED FATTY ACID DERIVATIVE, PRECURSOR COMPOUND THEREOF, AND USE THEREOF IN CONTRAST AGENT” (BEIJING NORMAL UNIVERSITY, priority 2022, published 2025).

Like-named read-outs stand apart in the source and are kept apart here.

The conditions of the data set: rats, reference 4, cited from earlier work.

In the case of `CC(CCCCCCCCCCCCc1ccc([123I])cc1)CC(=O)O` (centres unmarked) [[^123I]BMIPP], the Heart-to-Lungs ratio runs as follows: (30 min after injection) 3.16; (60 min after injection) 3.52; (240 min after injection) 2.49. The Heart-to-Blood ratio (30 min post-injection) is reported as 2.27, the Heart-to-Blood ratio (60 min post-injection) is on record as 2.51 and the Heart-to-Blood ratio (240 min post-injection) is 2.01. Further, the “absolute myocardial uptake value” is on record as 3.63 % ID/g (30 min post-injection), 4.26 % ID/g (60 min post-injection) and 2.27 % ID/g (240 min post-injection). Further, the Heart-to-Liver ratio runs as follows: (60 min after injection) 2.22; (240 min after injection) 2.39.
